Results published in EP4707284A1, “HETEROCYCLIC COMPOUND AND USE THEREOF” (Otsuka Pharmaceutical Co., Ltd., priority 2023, dated 2024).

Assay type: physicochemical
Conditions: 37°C, 60 minutes; for Concentration of brexpiprazole formed / Concentration of evaluation compound decreased: Tris-hydrochloric acid buffer (pH 7.5) 50 mmol/L, magnesium chloride 5 mmol/L, evaluation compound 1 µmol/L, average of duplicate
Method: The conversion from the evaluation compounds to brexpiprazole in a buffer (i.e., the stability of the evaluation compounds) was evaluated.
The Example 1 compound was dissolved in acetonitrile/water (1:1, v/v) to 10 mmol/L and further diluted with acetonitrile/water (1:1, v/v) to 100 µmol/L for use.
The other Example compounds and the Reference Example 5 compound to Reference Example 7 compound were each dissolved in DMSO to 10 mmol/L and further diluted with acetonitrile to 100 µmol/L for use, except for the following compounds.
The compounds of Examples 52, 95, 96, 117, and 130 (EX 52, EX 95, EX 96, EX 117, and EX 130) were dissolved in acetonitrile/water (8:2, v/v) to 10 mmol/L and further diluted with acetonitrile to 100 µmol/L for use.
The compound of Example 97 (EX 97) was dissolved in acetonitrile/water (8:2, v/v) to 10 mmol/L and further diluted with acetonitrile/water (8:2, v/v) to 100 µmol/L for use.
The compounds of Examples 15 and 116 (EX 15 and EX 116) were dissolved in DMSO to 1 mmol/L and further diluted with acetonitrile to 100 µmol/L for use.
These evaluation compound solutions were prepared at the time of use.
The reaction was conducted by preparing each reaction solution such that the final concentration of each component was as follows. The test was conducted in duplicate.
For the compounds of Examples 1 to 8, 10 to 19, 26 to 27, 37, 50, 87 to 89, 91, 116, 121, 123, 150, and 151 (EX 1 to EX 8, EX 10 to EX 19, EX 26 to EX 27, EX 37, EX 50, EX 87 to EX 89, EX 91, EX 116, EX 121, EX 123, EX 150, and EX 151), and the compounds of Reference Examples 5 to 7 (REX 5 to REX 7), the reaction solution without the evaluation compound (198 µl) was pre-incubated at 37°C for 3 minutes, and then each of the evaluation compound solutions (2 µl) was added and stirred; thereafter, the reaction was started at 37°C. At 0 minutes or 60 minutes after the start of the reaction, the reaction was stopped by adding and stirring a reaction stop solution (1000 µl) composed of acetonitrile/isopropanol (4:1, v/v) containing internal standard substances. However, the 0-minute reaction sample (198 µl) was prepared by adding the evaluation compound (2 µl) after adding the reaction stop solution (1000 µl). The samples after stopping the reaction were used as the measurement samples. Calibration curve samples with the same composition were prepared (final concentrations of the evaluation compounds and brexpiprazole: 0.01, 0.1, and 1 µmol/L, with the proviso that for the evaluation compounds only, the 0-minute reaction samples were also used as calibration curve samples for 1 µmol/L).
For the compounds of Examples 24 to 25, 28 to 29, 32 to 36, 40 to 49, 51 to 60, 62 to 64, 66 to 77, 80 to 86, 90, 92 to 111, 113, 115, 117 to 120, 122, 124 to 130, 132 to 147, and 152 to 160 (EX 24 to EX 25, EX 28 to EX 29, EX 32 to EX 36, EX 40 to EX 49, EX 51 to EX 60, EX 62 to EX 64, EX 66 to EX 77, EX 80 to EX 86, EX 90, EX 92 to EX 111, EX 113, EX 115, EX 117 to EX 120, EX 122, EX 124 to EX 130, EX 132 to EX 147, and EX 152 to EX 160), the reaction solution without the evaluation compound (148.5 µl) was pre-incubated at 37°C for 3 minutes, and then each of the evaluation compound solutions (1.5 µl) was added and stirred; thereafter, the reaction was started at 37°C. At 0 minutes or 60 minutes after the start of the reaction, the reaction was stopped by adding and stirring a reaction stop solution (600 µl) composed of acetonitrile/isopropanol (4:1, v/v) containing internal standard substances. However, the 0-minute reaction sample (148.5 µl) was prepared by adding the evaluation compound (1.5 µl) after adding the reaction stop solution (600 µl). The samples after stopping the reaction were used as the measurement samples. […]

For `O=c1ccc2ccc(OCCCC[N+]3(COP(=O)([O-])OCC(F)F)CCN(c4cccc5sccc45)CC3)cc2[nH]1` [EX 115], the “Concentration of brexpiprazole formed” value was 0 nM and the “Concentration of evaluation compound decreased” value was 50 nM.
With `CCOCCCOP(=O)([O-])OC[N+]1(CCCCOc2ccc3ccc(=O)[nH]c3c2)CCN(c2cccc3sccc23)CC1` [EX 97] the “Concentration of brexpiprazole formed” value was 0 nM and the “Concentration of evaluation compound decreased” value was 90 nM.
In the case of `COc1ccc(COC(=O)CC(C)(C)CC(=O)OCOP(=O)([O-])OC[N+]2(CCCCOc3ccc4ccc(=O)[nH]c4c3)CCN(c3cccc4sccc34)CC2)cc1` [EX 72], the “Concentration of brexpiprazole formed” value is reported as 0 nM and the “Concentration of evaluation compound decreased” value is reported as 150 nM.
For `CCCOCCOP(=O)([O-])OC[N+]1(CCCCOc2ccc3ccc(=O)[nH]c3c2)CCN(c2cccc3sccc23)CC1` [EX 95], the “Concentration of brexpiprazole formed” value was 0 nM and the “Concentration of evaluation compound decreased” value was -10 nM.
For `CCCC(C)(C)C(=O)OCOP(=O)([O-])OC[N+]1(CCCCOc2ccc3ccc(=O)[nH]c3c2)CCN(c2cccc3sccc23)CC1` [EX 123], the “Concentration of brexpiprazole formed” value was 0 nM and the “Concentration of evaluation compound decreased” value was -110 nM.
With `COCCCOP(=O)([O-])OC[N+]1(CCCCOc2ccc3ccc(=O)[nH]c3c2)CCN(c2cccc3sccc23)CC1` [EX 49] the “Concentration of brexpiprazole formed” value was 0 nM and the “Concentration of evaluation compound decreased” value was 50 nM.
In the case of `CC(C)COC(=O)[C@@H](C)OP(=O)([O-])OC[N+]1(CCCCOc2ccc3ccc(=O)[nH]c3c2)CCN(c2cccc3sccc23)CC1` [EX 107], the “Concentration of brexpiprazole formed” value is reported as 0 nM and the “Concentration of evaluation compound decreased” value is reported as 70 nM.
In the case of `COC(=O)[C@H](COP(=O)([O-])OC[N+]1(CCCCOc2ccc3ccc(=O)[nH]c3c2)CCN(c2cccc3sccc23)CC1)NC(=O)OC(C)(C)C` [EX 83], the “Concentration of brexpiprazole formed” value is reported as 0 nM and the “Concentration of evaluation compound decreased” value is reported as 70 nM.
In the case of `O=c1ccc2ccc(OCCCC[N+]3(COP(=O)([O-])OCCCCO)CCN(c4cccc5sccc45)CC3)cc2[nH]1` [EX 10, (4-(benzo[b]thiophen-4-yl)-1-(4-((2-oxo-1,2-dihydroquinolin-7-yl)oxy)butyl)piperazin-1-ium-1-yl)methyl (4-hydroxybutyl) phosphate], the “Concentration of brexpiprazole formed” value is reported as 0 nM and the “Concentration of evaluation compound decreased” value is reported as -20 nM.
In the case of `CC(C)(C)C(=O)OP(=O)([O-])OC[N+]1(CCCCOc2ccc3ccc(=O)[nH]c3c2)CCN(c2cccc3sccc23)CC1` [EX 150], the “Concentration of brexpiprazole formed” value is reported as 0 nM and the “Concentration of evaluation compound decreased” value is reported as 110 nM.
With `COCCCCOP(=O)([O-])OC[N+]1(CCCCOc2ccc3ccc(=O)[nH]c3c2)CCN(c2cccc3sccc23)CC1` [EX 50] the “Concentration of brexpiprazole formed” value was 0 nM and the “Concentration of evaluation compound decreased” value was 10 nM.
In the case of `CSCCCOP(=O)([O-])OC[N+]1(CCCCOc2ccc3ccc(=O)[nH]c3c2)CCN(c2cccc3sccc23)CC1` [EX 66], the “Concentration of brexpiprazole formed” value is reported as 0 nM and the “Concentration of evaluation compound decreased” value is reported as 170 nM.
With `CCOCCOP(=O)([O-])OC[N+]1(CCCCOc2ccc3ccc(=O)[nH]c3c2)CCN(c2cccc3sccc23)CC1` [EX 94] the “Concentration of brexpiprazole formed” value was 0 nM and the “Concentration of evaluation compound decreased” value was -70 nM.
For `CC1(C)OCC(COP(=O)([O-])OC[N+]2(CCCCOc3ccc4ccc(=O)[nH]c4c3)CCN(c3cccc4sccc34)CC2)CO1` [EX 55], the “Concentration of brexpiprazole formed” value was 0 nM and the “Concentration of evaluation compound decreased” value was 70 nM.
In the case of `CCCCCCOC(=O)OC[N+]1(CCCCOc2ccc3ccc(=O)[nH]c3c2)CCN(c2cccc3sccc23)CC1.[I-]` [REX 7, 4-(Benzo[b]thiophen-4-yl)-1-((((hexyloxy)carbonyl)oxy)methyl)-1-(4-((2-oxo-1,2-dihydroquinolin-7-yl)oxy)butyl)piperazin-1-ium iodide, reference compound], the “Concentration of brexpiprazole formed” value is reported as 240 nM, the “Concentration of evaluation compound decreased” value is reported as 270 nM and the “stability in the buffer / conversion to brexpiprazole (in words)” value (Tris-hydrochloric acid buffer (pH 7.5)) is reported as “clearly degraded to brexpiprazole”.
For `CC1(C)OCC(C(=O)OCOP(=O)([O-])OC[N+]2(CCCCOc3ccc4ccc(=O)[nH]c4c3)CCN(c3cccc4sccc34)CC2)CO1` [EX 67], the “Concentration of brexpiprazole formed” value was 0 nM and the “Concentration of evaluation compound decreased” value was 90 nM.
